Results as given in US4188380A, “Surface active quaternary higher dialkyl phosphonium salt biocides and intermediates” (Exxon Research & Engineering Co., priority 1976, dated 1980).
Where two headings read alike, the source gives them in different places. Values belong to the molecule of their own block, whether it stands above or below them.

Tests used:
[1] = system: Pseudomonas aeruginosa; experiment: Broth dilution minimum inhibitory concentration, Pseudomonas aeruginosa; format: cell-based; conditions: for MIC: Pseudomonas aeruginosa, read-out: Minimum Inhibitory Concentration, Pseudomonas aeruginosa
Description: (§1) In the primary biocidal testing of the quaternary higher dialkyl phosphonium salts, broth dilution was used as the primary method to determine the minimum salt concentrations necessary for a complete inhibition of bacterial, fungal and algal growth. Typically, 2 ml per tube of trypticase soy broth was used as nutrient medium. Usually 10 mg of the phosphonium chloride was dissolved in 5 ml ethanol and this was then diluted to 10 ml with water to give an aqueous ethanol stock solution of […] concentration. The inoculum of the microorganism was one drop of a thousandfold diluted 24 hour culture which usually contained 1000 bacteria or 10,000 fungal or algal cells. To the inoculated broth media, different amounts of the experimental chemicals were administered. The media were then observed for visible growth after a period dependent on the type of the microorganism used. Bacterial growth or inhibition was observed after one or two days. Growths of fungi and algae were checked after 7 or 14 days. Observing a series of dilutions of the experimental chemical, minimum growth inhibitory, i.e., microbiostatic, concentrations (MIC) were determined.
(§2) A number of quaternary phosphonium chlorides characterized in Table I were broth dilution tested against an important gram negative bacterial organism, Pseudomonas aeruginosa; a common gram positive bacterium, Staphylococcus aureus, and a widespread fungus, Aspergillus niger, and a common algal organism, Chlorella vulgaris.

[2] = system: Staphylococcus aureus; experiment: Broth dilution minimum inhibitory concentration, Staphylococcus aureus; format: cell-based; conditions: read-out: Minimum Inhibitory Concentration, Staphylococcus aureus
Description: as §1, §2

[3] = system: Aspergillus niger; experiment: Broth dilution minimum inhibitory concentration, Aspergillus niger; format: cell-based; conditions: for MIC: Aspergillus niger, read-out: Minimum Inhibitory Concentration, Aspergillus niger
Description: as §1, §2

[4] = system: Chlorella vulgaris; experiment: Broth dilution minimum inhibitory concentration, Chlorella vulgaris; format: cell-based; conditions: read-out: Minimum Inhibitory Concentration, Chlorella vulgaris
Description: as §1, §2

[5] = Surface tension of water solutions towards air, ASTM D-971; format: physicochemical; conditions: 25°
Description: (§3) To obtain standard data for estimating the surface activity of quaternary higher dialkyl phosphonium salts, the surface tensions of their water solutions and the interfacial tensions of their equilibriated solutions in water and a paraffinic hydrocarbon were determined as described by ASTM D-971-50.
(§4) Didodecyl dimethyl phosphonium chloride and, for comparison, octadecyl trimethyl phosphonium chloride were tested as described above, according to ASTM D-971. The surface tension towards air measurement used distilled water at 25°, which gives a base value of 72 dynes per cm. For interfacial tension measurements a water-paraffin (Nujol) system was used. Without any added surfactant, this has an interfacial tension of 52 dynes per cm. The interfacial tension measurements of the phosphonium chloride solutions were made after equal volumes of the two immiscible solvent and the given amount of salt were slowly stirred for 30 minutes to arrive at equilibrium concentrations of the salt.

[6] = Interfacial tension in water-paraffin (Nujol) system, ASTM D-971; format: physicochemical; conditions: 25°
Description: as §3, §4

[7] = Solubility in toluene
[8] = system: Escherichia coli; experiment: Broth dilution minimum inhibitory concentration, Escherichia coli; format: cell-based
Description: as §1
(§5) To test the breadth of the microbiocidal spectrum of didecyl dimethyl phosphonium chloride, minimum inhibitory concentrations (MIC's) were determined against several additional organisms in broth dilution tests with the following results: […]

[9] = system: Salmonella typhosa; experiment: Broth dilution minimum inhibitory concentration, Salmonella typhosa; format: cell-based; conditions: Salmonella enterica
Description: as §1, §5

[10] = system: Candida albicans; experiment: Broth dilution minimum inhibitory concentration, Candida albicans; format: cell-based
Description: as §1, §5

[11] = system: Staph. aureus; experiment: AOAC Germicidal and Sanitizer Test, Staph. aureus; format: cell-based; conditions: Staphylococcus aureus
Source text: (§6) To determine the effectiveness of a quaternary higher dialkyl phosphonium salt, i.e. didecyl dimethyl phosphonium chloride as a bactericide, the AOAC Germicidal and Sanitizer Test was used.

[12] = system: E. coli; experiment: AOAC Germicidal and Sanitizer Test, E. coli; format: cell-based; conditions: Escherichia coli
Source text: as §6

[13] = Acute oral toxicity in Swiss albino mice; format: in vivo; conditions: mouse, in vivo, Swiss albino mice, read-out: median lethal toxicity, acute oral
Description: (§7) The acute oral toxicity of didecyl dimethyl phosphonium chloride and dioctadecyl diethyl phosphonium chloride was determined using Swiss albino mice. The median lethal toxicities found were 350 and 2840 mg salt per body kg mice, respectively.

[14] = system: mice; experiment: Acute oral toxicity in Swiss albino mice; format: in vivo
Description: as §7

[15] = system: bacterial, fungal and algal growth; experiment: Microbiocidal activity in general (broth dilution); format: cell-based
Description: as §1

- MIC ([1]; 24 h, after 1 day): 250 µg/mL
- MIC ([2]; 48 h, after 2 days): 0.5 µg/mL
- MIC ([3]; 336 h, after 14 days): 7.5 µg/mL
- MIC ([4]; 336 h, after 14 days): 4 µg/mL
Structure (SMILES): CCCCCCCC[P+](C)(C)CCCCCCCC.[Cl-] [Example 4, Dioctyl Dimethyl Phosphonium Chloride]

- Surface Tension of Water ([5]; 0.001% salt): 33 Dynes/cm
- Surface Tension of Water ([5]; 0.0025% salt): 33 Dynes/cm
- Surface Tension of Water ([5]; 0.005% salt): 32 Dynes/cm
- Surface Tension of Water ([5]; 0.0075% salt): 31 Dynes/cm
- Surface Tension of Water ([5]; 0.010% salt): 31 Dynes/cm
- Surface Tension of Water ([5]; 0.100% salt): 29 Dynes/cm
- Interfacial Tension of Water-Nujol ([6]; 0.001% salt): 3 Dynes/cm
- Interfacial Tension of Water-Nujol ([6]; 0.0025% salt): 3 Dynes/cm
- Interfacial Tension of Water-Nujol ([6]; 0.005% salt): 3 Dynes/cm
- Interfacial Tension of Water-Nujol ([6]; 0.0075% salt): 3 Dynes/cm
- Interfacial Tension of Water-Nujol ([6]; 0.010% salt): 3 Dynes/cm
- Interfacial Tension of Water-Nujol ([6]; 0.100% salt): 2 Dynes/cm
- MIC ([1]; 24 h, after 1 day): 2500 µg/mL
- MIC ([2]; 24 h, after 1 day): 1 µg/mL
- MIC ([3]; 168 h, after 7 days): 75 µg/mL
- MIC ([4]; 168 h, after 7 days): 8 µg/mL
Structure (SMILES): CCCCCCCCCCCC[P+](C)(C)CCCCCCCCCCCC.[Cl-] [Example 1, Didodecyl Dimethyl Phosphonium Chloride]
- activity against Pseudomonas aeruginosa [1]: no significant activity

Structure (SMILES): CCCCCCCCCCCC[P+](CC)(CCCCCCCCCCCC)CC(C)C.[Cl-] [Example 6, Didodecyl Isobutyl Ethyl Phosphonium Chloride]
- activity against Pseudomonas aeruginosa [1]: Particularly outstanding
- MIC ([1]; 24 h, after 1 day): 16 µg/mL
- MIC ([2]; 24 h, after 1 day): 0.5 µg/mL
- MIC ([3]; 336 h, after 14 days): 1 µg/mL
- MIC ([4]; 336 h, after 14 days): 0.5 µg/mL
- solubility in toluene [7]: highly soluble in toluene

- MIC ([1]; 48 h, after 2 days): 250 µg/mL
Structure (SMILES): CCCCCCCC[P+](C)(CC)CCCCCCCC.[Cl-] [Example 5, Dioctyl Ethyl Methyl Phosphonium Chloride]

Structure (SMILES): CCCCCCCCCCCCCCCCCC[P+](C)(C)C.[Cl-] [C18 H37 P^+ (CH3)3, octadecyl trimethyl phosphonium chloride, reference compound]
- Surface Tension of Water ([5]; 0.010% salt): 42 Dynes/cm
- Surface Tension of Water ([5]; 0.100% salt): 41 Dynes/cm
- Interfacial Tension of Water-Nujol ([6]; 0.010% salt): 12 Dynes/cm
- Interfacial Tension of Water-Nujol ([6]; 0.100% salt): 10 Dynes/cm

- MIC ([1]; 24 h, after 1 day): 16 µg/mL
- MIC ([2]; 24 h, after 1 day): 0.5 µg/mL
- MIC ([3]; 336 h, after 14 days): 0.5 µg/mL
- MIC ([4]; 336 h, after 14 days): 0.5 µg/mL
Structure (SMILES): CCCCCCCCCCCCCCCC[P+](CC)(CCCCCCCCCCCCCCCC)CC(C)C.[Cl-] [Example 7, Dihexadecyl Isobutyl Ethyl Phosphonium Chloride]
- activity against Pseudomonas aeruginosa [1]: Particularly outstanding

Structure (SMILES): CCCCCCCCCC[P+](C)(C)CCCCCCCCCC.[Cl-] [Example 3, Didecyl Dimethyl Phosphonium Chloride]
- activity against Pseudomonas aeruginosa [1]: Particularly outstanding
- MIC ([1]; 24 h): 16 µg/mL
- MIC ([2]; 48 h): 0.5 µg/mL
- MIC ([3]; 336 h): 0.25 µg/mL
- minimum inhibitory concentration against Aspergillus niger relative to didodecyl dimethyl phosphonium chloride ([3]; didecyl versus didodecyl compound (Seq. No. 4)): three hundred times smaller
- MIC ([4]; 336 h): 0.125 µg/mL
- MIC [8]: 0.5 µg/mL
- MIC [9]: 8 µg/mL
- MIC [10]: 0.25 µg/mL
- killing at 25 ppm ([11]; read-out: Reduction of live Bacterial Organisms in Distilled Water): 100%
- killing at 25 ppm ([11]; read-out: Reduction of live Bacterial Organisms in water of 200 ppm Hardness): 100%
- killing at 25 ppm ([12]; 200 ppm hardness, read-out: Reduction of live Bacterial Organisms in water of 200 ppm Hardness): 99.9%
- killing at 25 ppm ([12]; distilled water, read-out: Reduction of live Bacterial Organisms in Distilled Water): 100%
- LD50 [13]: 350 mg/kg
- level of oral toxicity [14]: medium level of oral toxicity

Structure (SMILES): CCCCCCCCCCCCCCCCCC[P+](CC)(CC)CCCCCCCCCCCCCCCCCC.[Cl-] [Example 8, Dioctadecyl Diethyl Phosphonium Chloride]
- MIC ([1]; 48 h): 500 µg/mL
- MIC ([2]; 48 h): 15 µg/mL
- MIC ([3]; 336 h): 15 µg/mL
- MIC ([4]; 336 h): 7.5 µg/mL
- LD50 [13]: 2840 mg/kg
- level of oral toxicity [14]: essential lack of oral toxicity
- microbiocidal activity [15]: not highly active microbiocidally
